Experimental data published in paper PMC4339681, “2- and 3-substituted imidazo[1,2-a]pyrazines as inhibitors of bacterial type IV secretion” (Bioorganic & Medicinal Chemistry, 2014).

Biological target: T1, VirB11 ATPase HP0525 (Helicobacter pylori, UniProt Q7BK04)
Assay: colorimetric in vitro ATPase assay (release of inorganic phosphate), IC50 estimation
Assay type: biochemical
Conditions: not given
Method: The HP0525 protein was produced recombinantly in Escherichia coli and purified to high purity as described previously.[10] The ATPase activity of HP0525 was measured by monitoring the release of inorganic phosphate (Pi) using an in vitro ATPase assay (see Section 4 and SI). Initially, the inhibitory effects of the compounds were evaluated by performing the ATPase assay with and without compound present at concentrations of 500 μM (or 250 μM), 50 μM and 5 μM (data not shown). The compounds with inhibitory activities were further analyzed for dose-dependency by estimating their IC50s (Fig. 2).
(§1) Assays for the activity of the HP0525 inhibitors were performed using a colorimetric ATPase assay (Innova Biosciences), see SI for details. The enzymatic reactions were performed in 96-well format for 30 min at 37 °C followed by measuring the absorbance at 620 nm, detecting the presence of inorganic phosphate product. […] Michaelis–Menten kinetics were performed under the same conditions as above but with various concentrations of ATP ranging from 0 to 500 μM, with and without 10 μM of compound 11. Both IC50 and Michaelis–Menten kinetics measurements were made in triplicate.
ATPase activity measurements were carried out using a colorimetric in vitro ATPase assay kit (Innova Biosciences), using 96-well ELISA microplates (Greiner Bio-One) with reaction volumes of 100 µL in each well. Multi-pipettes with either 8 tips or 96 tips were used. Enzymatic reactions were performed for 30 min at 37 °C followed by measuring the absorbance at 620 nm, detecting the presence of inorganic phosphate product. Each reaction contained 100 mM Tris–HCl, pH 7.5; 2.5 mM MgCl2; 125 μM ATP; 5% DMSO; 25 mM NaCl; 0.5 mM DTT and 0.053 μM HP0525, with or without inhibitor. In detail, the assay can be described in steps. Step 1: 48 μL of substrate buffer mix (providing the components Tris–HCl, pH 7.5; MgCl2; ATP and DMSO) was dispensed to each well. Step 2: 2 μL of compound (solublized in DMSO) was added to corresponding well. Step 3: Enzymatic reaction was started by the addition of 50 μL of protein (in 50 mM Tris-HCl, pH 7.5; 50 mM NaCl and 1 mM DTT) to the wells. Step 4: Reaction plates were incubated at 37 degrees for 30 min. Step 5: The reaction was stopped by the addition of 25 uL of Gold mix reagent, followed by vigorous mixing. After 2-5 min, 10 uL of stabilizer solution was added to the reaction. Step 6: After an additional 30 min incubation at room temperature, the absorbance at 620 nm was measured using a microplate reader.
In the negative control, the protein was added after the Gold mix, as described in the standard protocol of the Innova Biociences ATPase assay kit. As an alternative negative control, providing equivalent readouts, 10 mM EDTA could also be added at Step 2, then removing the catalytically essential Mg ions from the active site of HP0525.
(§2) Michaelis-Menten kinetics were performed under the same conditions as above but with various concentrations of ATP ranging from 0 to 500 μM, with and without 10 μM of compound 11. Negative controls for each ATP concentration were used. GraphPad Prism version 5.0d for Mac OS X (GraphPad Software, San Diego California USA, www.graphpad.com) was used for the IC50 calculations using the Prism equation for non-linear normalized dose-response ‘Log(Inhibitor) vs. normalized response’ with Hill slope set to 1; and for Michaelis-Menten and Lineweaver-Burk analysis.

T1 sequence (Q7BK04 entry or part of it): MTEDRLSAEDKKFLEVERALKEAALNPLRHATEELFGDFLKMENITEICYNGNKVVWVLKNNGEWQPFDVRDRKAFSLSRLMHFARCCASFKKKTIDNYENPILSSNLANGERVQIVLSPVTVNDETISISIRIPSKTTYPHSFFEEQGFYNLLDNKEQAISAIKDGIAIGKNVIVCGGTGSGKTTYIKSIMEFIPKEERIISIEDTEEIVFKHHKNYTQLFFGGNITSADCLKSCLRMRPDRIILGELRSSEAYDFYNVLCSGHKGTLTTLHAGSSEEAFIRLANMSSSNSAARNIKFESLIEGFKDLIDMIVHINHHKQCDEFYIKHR

Compound | IC50 [µM]
Cc1ccc(S(=O)(=O)Nc2nccn3cc(-c4cc(C)cc(C)c4)nc23)cc1 [Compound 10, N-[2-(3,5-dimethylphenyl)imidazo[1,2-a]pyrazine-8-yl]-4-methylbenzenesulfonamide] | 133 ± 16
Cc1ccc(S(=O)(=O)Nc2ccc(Nc3nccn4c(-c5ccc6ccccc6c5)cnc34)cc2)cc1 [Compound 5, 4-methyl-N-[4-[3-(2-naphthyl)imidazo[1,2-a]pyrazine-8-yl]aminophenyl]benzenesulfonamide] | 20 ± 3
O=S(=O)(Nc1cccc(Nc2nccn3cc(-c4ccc5ccccc5c4)nc23)c1)c1cccc2cccnc12 [Compound 34, N-(3-((2-(Naphthalen-2-yl)imidazo[1,2-a]pyrazin-8-yl)amino)phenyl)quinoline-8-sulfonamide] | 7 ± 2
Cc1ccc(S(=O)(=O)Nc2ccc(Oc3nccn4cc(-c5ccc6ccccc6c5)nc34)cc2)cc1 [Compound 28, 4-Methyl-N-(4-(2-(naphthalen-2-yl)imidazo[1,2-a]pyrazin-8-yloxy)phenyl)benzenesulfonamide] | 29 ± 9
Cc1ccc(S(=O)(=O)Nc2nccn3cc(-c4ccccc4Oc4ccccc4)nc23)cc1 [Compound 8, 4-methyl-N-[2-(2-phenoxyphenyl)imidazo[1,2-a]pyrazine-8-yl]benzenesulfonamide] | 82 ± 14
c1cncc(-c2cccc(Nc3nccn4cc(-c5ccc6ccccc6c5)nc34)c2)c1 [Compound 32, 2-(Naphthalen-2-yl)-N-(3-(pyridin-3-yl)phenyl)imidazo[1,2-a]pyrazin-8-amine] | 4 ± 1
Cc1ccc(S(=O)(=O)Nc2ccc(Nc3nccn4cc(-c5cnc6ccccc6n5)nc34)cc2)cc1 [Compound 36, 4-Methyl-N-(4-(2-(quinoxalin-2-yl)imidazo[1,2-a]pyrazin-8-ylamino)phenyl)benzenesulfonamide] | 28 ± 6
COc1ccc(-c2cn3ccnc(NS(=O)(=O)c4ccc(C)cc4)c3n2)cc1OC [Compound 9, N-[2-(3,4-dimethoxylphenyl)imidazo[1,2-a]pyrazine-8-yl]-4-methyl-benzenesulfonamide] | 167 ± 43
Cc1ccc(S(=O)(=O)Nc2ccc(Nc3nccn4c(-c5ccsc5)cnc34)cc2)cc1 [Compound 6, 4-methyl-N-[4-[[3-(3-thienyl)imidazo[1,2-a]pyrazine-8-yl]amino]phenyl]benzenesulfonamide] | 48 ± 7
Cc1ccc(S(=O)(=O)NCCNc2nccn3cc(-c4ccc5ccccc5c4)nc23)cc1 [Compound 31, 4-Methyl-N-(2-(2-(naphthalen-2-yl)imidazo[1,2-a]pyrazin-8-ylamino)ethyl)benzenesulfonamide] | 7 ± 2
Nc1ccc(Nc2nccn3cc(-c4ccc5ccccc5c4)nc23)cc1 [Compound 26, N^’-(2-(Naphthalen-2-yl)imidazo[1,2-a]pyrazin-8-yl)benzene-1,4-diamine] | 18 ± 5
Cc1ccc(S(=O)(=O)Nc2nccn3c(-c4ccccc4Oc4ccccc4)cnc23)cc1 [Compound 2] | 96 ± 42
Cc1ccc(S(=O)(=O)NCCCNc2nccn3cc(-c4ccc5ccccc5c4)nc23)cc1 [Compound 30, 4-Methyl-N-(3-(2-(naphthalen-2-yl)imidazo[1,2-a]pyrazin-8-ylamino)propyl)benzenesulfonamide] | 58 ± 38
COc1ccc(-c2cnc3c(NS(=O)(=O)c4ccc(C)cc4)nccn23)cc1OC [Compound 3, N-[3-(3,4-dimethoxyphenyl)imidazo[1,2-a]pyrazine-8-yl]-4-methyl-benzenesulfonamide] | 144 ± 14
Nc1nccn2cc(-c3ccc4ccccc4c3)nc12 [Compound 25, 2-(Naphthalen-2-yl)imidazo[1,2-a]pyrazin-8-amine] | > 1000
Cc1ccc(S(=O)(=O)Nc2ccc(Nc3nccn4cc(-c5ccsc5)nc34)cc2)cc1 [Compound 12, 4-methyl-N-[4-[[2-(3-thienyl)imidazo[1,2-a]pyrazine-8-yl]amino]phenyl]benzenesulfonamide] | 99 ± 18
O=S(=O)(Nc1ccc(Nc2nccn3cc(-c4ccc5ccccc5c4)nc23)cc1)c1cccc2cccnc12 [Compound 33, N-(4-((2-(Naphthalen-2-yl)imidazo[1,2-a]pyrazin-8-yl)amino)phenyl)quinoline-8-sulfonamide] | 7 ± 2
CS(=O)(=O)Nc1ccc(Nc2nccn3cc(-c4ccc5ccccc5c4)nc23)cc1 [Compound 27, N-(4-(2-(Naphthalen-2-yl)imidazo[1,2-a]pyrazin-8-ylamino)phenyl)methanesulfonamide] | 61 ± 28
Cc1ccc(S(=O)(=O)Nc2nccn3cc(-c4ccc5ccccc5c4)nc23)cc1 [Compound 7, 4-methyl-N-[2-(2-naphthyl)imidazo[1,2-a]pyrazine-8-yl]benzenesulfonamide] | 88 ± 14
Cc1ccc(S(=O)(=O)Nc2ccc(Nc3nccn4ccnc34)cc2)cc1 [Compound 35, N-(4-(Imidazo[1,2-a]pyrazin-8-ylamino)phenyl)-4-methylbenzenesulfonamide] | > 1000
Cc1ccc(S(=O)(=O)Nc2ccc(Nc3nccn4cc(-c5ccccc5Oc5ccccc5)nc34)cc2)cc1 [Compound 13, 4-Methyl-N-(4-(2-(2-phenoxyphenyl)imidazo[1,2-a]pyrazin-8-ylamino)phenyl)benzenesulfonamide] | 18 ± 4
Cc1ccc(S(=O)(=O)Nc2ccc(CNc3nccn4cc(-c5ccc6ccccc6c5)nc34)cc2)cc1 [Compound 29, 4-Methyl-N-(4-((2-(naphthalen-2-yl)imidazo[1,2-a]pyrazin-8-ylamino)methyl)phenyl)benzenesulfonamide] | 75 ± 35
Cc1ccc(S(=O)(=O)Nc2nccn3c(-c4cc(C)cc(C)c4)cnc23)cc1 [Compound 4] | 154 ± 22
Cc1ccc(S(=O)(=O)Nc2ccc(Nc3nccn4cc(-c5ccc6ccccc6c5)nc34)cc2)cc1 [Compound 11, 4-methyl-N-[4-[[2-(2-naphthyl)imidazo[1,2-a]pyrazine-8-yl]amino]phenyl]benzenesulfonamide] | 6 ± 1

Same assay, conditions: 125 μM ATP, 0.053 μM HP0525, 5% DMSO, pH 7.5, 30 min at 37 °C, triplicate; read-out: IC50

Compound | IC50 [µM]
4-methyl-N-[2-(2-naphthyl)imidazo[1,2-a]pyrazine-8-yl]benzenesulfonamide [Compound 1] | 77 ± 16
N-(4-((6-Bromo-2-(naphthalen-2-yl)imidazo[1,2-a]pyrazin-8-yl)amino)phenyl)-4- methylbenzenesulfonamide [Compound 37] | 6 ± 2
N-(2-((6-Bromo-2-(naphthalen-2-yl)imidazo[1,2-a]pyrazin-8-yl)amino)ethyl)-4- methylbenzenesulfonamide [Compound 38] | 77 ± 20

Same assay, conditions: ATPase assay

Compound | inhibitory activity in words
Nc1nccn2cc(-c3ccc4ccccc4c3)nc12 [Compound 25, 2-(Naphthalen-2-yl)imidazo[1,2-a]pyrazin-8-amine] | complete loss of activity
Cc1ccc(S(=O)(=O)Nc2ccc(Nc3nccn4ccnc34)cc2)cc1 [Compound 35, N-(4-(Imidazo[1,2-a]pyrazin-8-ylamino)phenyl)-4-methylbenzenesulfonamide] | complete loss of activity

Biological target: T1, VirB11 ATPase HP0525
Assay: steady-state (Michaelis–Menten / Lineweaver–Burk) kinetics, mode of inhibition
Assay type: biochemical
Conditions: ATP 0 to 500 μM, with and without 10 μM of compound
Method: as §1, §2

Compound | mode of inhibition
Cc1ccc(S(=O)(=O)Nc2ccc(Nc3nccn4cc(-c5ccc6ccccc6c5)nc34)cc2)cc1 [Compound 11, 4-methyl-N-[4-[[2-(2-naphthyl)imidazo[1,2-a]pyrazine-8-yl]amino]phenyl]benzenesulfonamide] | competitive inhibitor
